From patent publication US9487511B2, “Cyclopropanamine compound and use thereof” (Takeda Pharmaceutical Company Limited, priority 2014, dated 2016)
pIC50: −log10 of the molar value. Structures can show the parent of a compound that is named as a salt. Where two headings read alike, the source gives them in different places.

Key:
[1] = target: human LSD1(172-833) (Homo sapiens (Human), UniProt O60341); experiment: Measurement of LSD1 inhibitory activity (time-resolved fluorescence, biotin-histone H3 mono methylated K4 peptide); format: biochemical; conditions: 60 min preincubation with enzyme at room temperature;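 further: after the compound–enzyme step, substrate reaction 5 min at room temperature in Tris-HCl pH 8.0 with BSA and DTT, halted by 2-PCPA, detected with europium anti-histone H3 antibody plus Streptavidin-XL665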
Experimental: A test compound dissolved in DMSO was added by to a reaction solution (50 mM Tris-HCl (pH 8.0), 0.1% BSA, 1 mM DTT) containing LSD1 enzyme, and the mixture was reacted at room temperature for 60 min. […] After reaction at room temperature for 5 min, 2-PCPA solution was added to terminate the reaction. A detection solution (800 mM potassium fluoride, 0.1% BSA) containing europium-labeled anti-histone H3 antibody (Wako Pure Chemical Industries, Ltd.) and Streptavidin-XL665 (Cisbio) was further added, and the mixture was left standing for 60 min. […] The LSD1 inhibitory rate (%) of the test compound was calculated by the following formula. inhibitory rate (%)=(1−(test compound count−blank)÷(control−blank))×100
The count of the LSD1 enzyme reaction mixture under compound non-addition conditions is indicated as control, and the count under compound non-addition and LSD1 enzyme non-addition conditions is indicated as blank. A concentration necessary for achieving 50% inhibitory rate was taken as ICH value.

[2] = target: MAO-B enzyme (Homo sapiens (Human), UniProt P27338); experiment: Measurement of MAO-B inhibitory activity (MAO-Glo Assay); format: biochemical
Experimental: The MAO-B inhibitory activity evaluation described below followed the protocol of MAO-Glo (registered trademark) Assay of Promega KK.
A test compound dissolved in DMSO was added to a reaction solution (100 mM HEPES (pH 7.5), 5% glycerol, 10% DMSO) containing MAO-B enzyme (Sigma-Aldrich Co. LLC.), and the mixture was reacted at room temperature for 15 min. MAO substrate (Promega KK) was added to start the reaction. After reaction at room temperature for 60 min, Luciferine detection reagent (Promega KK) (50 μL) was added to terminate the reaction. After reaction at room temperature for 20 min with stirring, the luminescence was measured by Envision (PerkinElmer). The MAO-B inhibitory rate (%) of the test compound was calculated by the following formula. inhibitory rate (%)=(1−(test compound count−blank)÷(control−blank))×100
The count of the MAO-B enzyme reaction mixture under compound non-addition conditions is indicated as control, and the count under compound non-addition and MAO-B enzyme non-addition conditions is indicated as blank.

[3] = target: MAO-A enzyme (Homo sapiens (Human), UniProt P21397); experiment: Measurement of MAO-A inhibitory activity (MAO-Glo Assay); format: biochemical
Experimental: The MAO-A inhibitory activity evaluation described below followed the protocol of MAO-Glo (registered trademark) Assay of Promega KK.
A test compound dissolved in DMSO was added to a reaction solution (100 mM HEPES (pH 7.5), 5% glycerol) containing MAO-A enzyme (Sigma-Aldrich Co. LLC.), and the mixture was reacted at room temperature for 15 min. MAO substrate (Promega KK) was added to start the reaction. After reaction at room temperature for 60 min, Luciferine detection reagent (Promega KK) was added to terminate the reaction. After reaction at room temperature for 20 min with stirring, the luminescence was measured by Envision (PerkinElmer). The MAO-A inhibitory rate (%) of the test compound was calculated by the following formula. inhibitory rate (%)=(1−(test compound count−blank)÷(control−blank))×100
The count of the MAO-A enzyme reaction mixture under compound non-addition conditions is indicated as control, and the count under compound non-addition and MAO-A enzyme non-addition conditions is indicated as blank.

[4] = Evaluation of blood cell number in mouse; format: in vivo; conditions: male ICR mice, oral, repeated 7 or 9 days
Experimental: All compounds were repeatedly administered to the mice at a dose of 1 mg/kg, 10 mg/kg or 100 mg/kg (body weight) for 7 or 9 days. One day after the final administration of the compound, the whole blood was collected.
Using Sysmex XT-1800i (Sysmex Corporation), the white blood cell number, red blood cell number, and platelet number in the collected whole blood per unit volume were measured. The influence of each compound on each blood cell number was determined by calculating the number with the mean of each blood cell number of the mouse without administration of the compound (0 mg/kg group), and the mean of each blood cell number in the whole blood of a mouse with the administration of the compound.

Sequence of MAO-B enzyme (P27338 whole entry): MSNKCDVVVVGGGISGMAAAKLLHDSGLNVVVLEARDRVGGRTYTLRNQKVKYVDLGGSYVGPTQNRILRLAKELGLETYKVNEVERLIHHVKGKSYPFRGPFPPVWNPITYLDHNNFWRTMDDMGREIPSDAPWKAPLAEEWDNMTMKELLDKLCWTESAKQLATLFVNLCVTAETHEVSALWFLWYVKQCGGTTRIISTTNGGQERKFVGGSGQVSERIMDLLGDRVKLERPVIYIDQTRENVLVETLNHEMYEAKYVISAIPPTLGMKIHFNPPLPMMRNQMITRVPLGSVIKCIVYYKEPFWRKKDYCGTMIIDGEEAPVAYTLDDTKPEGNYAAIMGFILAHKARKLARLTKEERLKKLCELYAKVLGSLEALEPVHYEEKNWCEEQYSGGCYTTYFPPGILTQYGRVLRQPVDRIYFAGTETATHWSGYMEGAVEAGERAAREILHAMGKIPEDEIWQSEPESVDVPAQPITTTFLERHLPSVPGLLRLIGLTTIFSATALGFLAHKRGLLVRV
Sequence of MAO-A enzyme (P21397 whole entry): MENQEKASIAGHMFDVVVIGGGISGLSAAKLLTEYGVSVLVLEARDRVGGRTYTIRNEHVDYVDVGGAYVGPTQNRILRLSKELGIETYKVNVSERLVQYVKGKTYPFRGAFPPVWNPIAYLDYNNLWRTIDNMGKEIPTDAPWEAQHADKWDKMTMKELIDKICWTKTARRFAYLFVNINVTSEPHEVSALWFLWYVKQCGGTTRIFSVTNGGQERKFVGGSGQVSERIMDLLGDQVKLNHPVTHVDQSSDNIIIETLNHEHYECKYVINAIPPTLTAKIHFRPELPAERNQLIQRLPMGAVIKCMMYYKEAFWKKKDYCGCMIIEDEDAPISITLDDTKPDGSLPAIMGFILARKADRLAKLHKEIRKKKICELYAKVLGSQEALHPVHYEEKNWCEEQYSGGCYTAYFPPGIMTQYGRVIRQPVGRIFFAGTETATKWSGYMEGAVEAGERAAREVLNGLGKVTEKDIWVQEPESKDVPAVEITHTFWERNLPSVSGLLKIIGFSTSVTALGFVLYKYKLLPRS

Row | Compound | pIC50 [1] | pIC50 [2] | pIC50 [3] | also measured
1 | O=C(NC1CCC(F)(F)CC1)c1cc2c(c([C@@H]3C[C@H]3NCC3CCOCC3)c1)OCC2 (relative stereo) [Example 12, N-(4,4-difluorocyclohexyl)-7-(trans-2-((tetrahydro-2H-pyran-4-ylmethyl)amino)cyclopropyl)-2,3-dihydro-1-benzofuran-5-carboxamide hydrochloride] | > 7.00 | < 4.00 | < 4.00 | 
2 | Cc1nnc(NC(=O)c2cc([C@@H]3C[C@H]3NCC3CCOCC3)cc3ccccc23)s1 (relative stereo) [Example 16, N-(5-methyl-1,3,4-thiadiazol-2-yl)-3-(trans-2-((tetrahydro-2H-pyran-4-ylmethyl)amino)cyclopropyl)-1-naphthamide dihydrochloride] | > 7.00 | < 4.00 | < 4.00 | 
3 | Cc1nnc(NC(=O)c2csc([C@@H]3C[C@H]3NCC3CC3)c2)s1 (relative stereo) [Example 23, 5-(trans-2-((cyclopropylmethyl)amino)cyclopropyl)-N-(5-methyl-1,3,4-thiadiazol-2-yl)thiophene-3-carboxamide dihydrochloride] |  | < 4.00 | < 4.00 | 
4 | O=C(NC1CCC(F)(F)CC1)c1csc([C@@H]2C[C@H]2NCC2CCOCC2)c1 (relative stereo) [Example 24, N-(4,4-difluorocyclohexyl)-5-(trans-2-((tetrahydro-2H-pyran-4-ylmethyl)amino)cyclopropyl)thiophene-3-carboxamide hydrochloride] | > 7.00 | < 4.00 | < 4.00 | 
5 | O=C(NC1CCC(F)(F)CC1)c1csc([C@@H]2C[C@H]2NCC2CC2)c1 (relative stereo) [Example 30, 5-(trans-2-((cyclopropylmethyl)amino)cyclopropyl)-N-(4,4-difluorocyclohexyl)thiophene-3-carboxamide hydrochloride] | > 7.00 | < 4.00 | < 4.00 | 
6 | O=C(NC1CCC(F)(F)CC1)c1csc([C@@H]2C[C@H]2NC2CCOCC2)c1 (relative stereo) [Example 31, N-(4,4-difluorocyclohexyl)-5-(trans-2-(tetrahydro-2H-pyran-4-ylamino)cyclopropyl)thiophene-3-carboxamide hydrochloride] | > 7.00 | < 4.00 | < 4.00 | 
7 | Cn1cc(NC(=O)c2csc([C@@H]3C[C@H]3NC3CCC3)c2)cn1 (relative stereo) [Example 34, 5-(trans-2-(cyclobutylamino)cyclopropyl)-N-(1-methyl-1H-pyrazol-4-yl)thiophene-3-carboxamide hydrochloride] | > 7.00 | < 4.00 | < 4.00 | 
8 | Cc1nnc(NC(=O)c2cc([C@@H]3C[C@H]3NCC3CCOCC3)cs2)s1 (relative stereo) [Example 58, N-(5-methyl-1,3,4-thiadiazol-2-yl)-4-(trans-2-((tetrahydro-2H-pyran-4-ylmethyl)amino)cyclopropyl)thiophene-2-carboxamide hydrochloride] | > 7.00 | < 4.00 | < 4.00 | 
9 | Cc1sc([C@@H]2C[C@H]2NCC2CC2)cc1C(=O)NC1CCC(F)(F)CC1 (relative stereo) [Example 65, 5-(trans-2-((cyclopropylmethyl)amino)cyclopropyl)-N-(4,4-difluorocyclohexyl)-2-methylthiophene-3-carboxamide hydrochloride] | > 7.00 | < 4.00 | 4.60 | 
10 | Cc1sc([C@@H]2C[C@H]2NCC2CCOCC2)cc1C(=O)NC1CCC(F)(F)CC1 (relative stereo) [Example 66, N-(4,4-difluorocyclohexyl)-2-methyl-5-(trans-2-((tetrahydro-2H-pyran-4-ylmethyl)amino)cyclopropyl)thiophene-3-carboxamide hydrochloride] | > 7.00 | < 4.00 | 4.01 | 
11 | Cc1nnc(NC(=O)c2cc([C@@H]3C[C@H]3NCC3CC3)sc2C)s1 (relative stereo) [Example 69, 5-(trans-2-((cyclopropylmethyl)amino)cyclopropyl)-2-methyl-N-(5-methyl-1,3,4-thiadiazol-2-yl)thiophene-3-carboxamide dihydrochloride] | > 7.00 | < 4.00 | 4.48 | 
12 | Cc1nnc(NC(=O)c2cc([C@@H]3C[C@H]3NCC3CCOCC3)sc2C)s1 (relative stereo) [Example 70, 2-methyl-N-(5-methyl-1,3,4-thiadiazol-2-yl)-5-(trans-2-((tetrahydro-2H-pyran-4-ylmethyl)amino)cyclopropyl)thiophene-3-carboxamide dihydrochloride] | > 7.00 | 4.64 | 5.00 | 
13 | O=C(NC1CCCC1)c1csc(C2CC2NC2CCOCC2)c1 (single isomer, unassigned) [Example 38, hydrochloride] | > 7.00 | < 4.00 | < 4.00 | 
14 | O=C(NC1CCCC1)c1csc(C2CC2NC2CCOCC2)c1 (single isomer, unassigned) [Example 39] | > 7.00 | < 4.00 | 4.64 | 
15 | Cc1nnc(NC(=O)c2csc(C3CC3NCC3CCOCC3)c2)s1 (single isomer, unassigned) [Example 40, dihydrochloride] | > 7.00 | < 4.00 |  | pIC50 ([3]; dihydrochloride): < 4.00
16 | Cc1nnc(NC(=O)c2csc(C3CC3NCC3CCOCC3)c2)s1 (single isomer, unassigned) [Example 41, dihydrochloride] | > 7.00 |  |  | pIC50 ([3]; dihydrochloride): 4.17
17 | NC1CCC(N[C@@H]2C[C@H]2c2cc(C(=O)NC3CCC(F)(F)CC3)cs2)CC1 (single isomer, unassigned) [Example 45, dihydrochloride] | > 7.00 | < 4.00 | < 4.00 | 
18 | O=C(NC1CCC(F)(F)CC1)c1csc([C@@H]2C[C@H]2NC2CCOCC2)c1 [Example 44, N-(4,4-difluorocyclohexyl)-5-((1R,2R)-2-(tetrahydro-2H-pyran-4-ylamino)cyclopropyl)thiophene-3-carboxamide hydrochloride] | > 7.00 | 4.00 | < 4.00 | 
19 | N[C@H]1CC[C@H](N[C@@H]2C[C@H]2c2cc(C(=O)NC3CCC(F)(F)CC3)cs2)CC1 [Example 46, 5-((1R,2R)-2-(trans-(4-aminocyclohexyl)amino)cyclopropyl)-N-(4,4-difluorocyclohexyl)thiophene-3-carboxamide dihydrochloride] | > 7.00 | < 4.00 | < 4.00 | 
20 | O=C(NC1CCOCC1)c1csc([C@@H]2C[C@H]2NC2CCC(F)(F)CC2)c1 [Example 47, 5-((1R,2R)-2-((4,4-difluorocyclohexyl)amino)cyclopropyl)-N-(tetrahydro-2H-pyran-4-yl)thiophene-3-carboxamide hydrochloride] | > 7.00 | < 4.00 | < 4.00 | 
21 | Cc1nnc(NC(=O)c2csc([C@@H]3C[C@H]3NC3CCN(C4CC4)CC3)c2)s1 [Example 48, 5-((1R,2R)-2-((1-cyclopropylpiperidin-4-yl)amino)cyclopropyl)-N-(5-methyl-1,3,4-thiadiazol-2-yl)thiophene-3-carboxamide dihydrochloride] | > 7.00 | < 4.00 | 4.51 | 
22 | Cc1nnc(NC(=O)c2csc([C@@H]3C[C@H]3NC3CCOCC3)c2)s1 [Example 49, N-(5-methyl-1,3,4-thiadiazol-2-yl)-5-((1R,2R)-2-(tetrahydro-2H-pyran-4-ylamino)cyclopropyl)thiophene-3-carboxamide hydrochloride] | > 7.00 | < 4.00 | < 4.00 | 
23 | Cc1ncc(NC(=O)c2csc([C@@H]3C[C@H]3NC3CCOCC3)c2)s1 [Example 50, N-(2-methyl-1,3-thiazol-5-yl)-5-((1R,2R)-2-(tetrahydro-2H-pyran-4-ylamino)cyclopropyl)thiophene-3-carboxamide hydrochloride] | > 7.00 | < 4.00 | < 4.00 | 
24 | Cc1nnc(NC(=O)c2cc([C@@H]3C[C@H]3NCC3CCOCC3)cs2)s1 [Example 72, N-(5-methyl-1,3,4-thiadiazol-2-yl)-4-((1S,2R)-2-((tetrahydro-2H-pyran-4-ylmethyl)amino)cyclopropyl)thiophene-2-carboxamide hydrochloride] | > 7.00 |  |  | 
25 | Cc1nnc(NC(=O)c2cc([C@@H]3C[C@H]3NCC3CC3)c(C)s2)s1 [Example 95, 4-((1S,2R)-2-((cyclopropylmethyl)amino)cyclopropyl)-5-methyl-N-(5-methyl-1,3,4-thiadiazol-2-yl)thiophene-2-carboxamide fumarate] |  |  |  | Platelets, Mean ([4]; 1 mg/kg): 1352 10^3 cells; Red blood cells, Mean ([4]; 1 mg/kg): 888 10^4 cells; White blood cells, Mean ([4]; 1 mg/kg): 422 10 cells; Platelets, Mean ([4]; 10 mg/kg): 1482 10^3 cells; Red blood cells, Mean ([4]; 10 mg/kg): 898 10^4 cells; White blood cells, Mean ([4]; 10 mg/kg): 408 10 cells
26 | Cc1sc(C(=O)Nc2cnn(C)c2)cc1[C@@H]1C[C@H]1NC1CCC1 [Example 104, 4-((1S,2R)-2-(cyclobutylamino)cyclopropyl)-5-methyl-N-(1-methyl-1H-pyrazol-4-yl)thiophene-2-carboxamide dihydrochloride] |  |  |  | Platelets, Mean ([4]; 1 mg/kg, dihydrochloride): 1370 10^3 cells; Red blood cells, Mean ([4]; 1 mg/kg, dihydrochloride): 870 10^4 cells; White blood cells, Mean ([4]; 1 mg/kg, dihydrochloride): 373 10 cells; Platelets, Mean ([4]; 10 mg/kg, dihydrochloride): 1404 10^3 cells; Red blood cells, Mean ([4]; 10 mg/kg, dihydrochloride): 872 10^4 cells; White blood cells, Mean ([4]; 10 mg/kg, dihydrochloride): 397 10 cells
